Test results: publication PMC8434392, “Harnessing the Anti-Nociceptive Potential of NK2 and NK3 Ligands in the Design of New Multifunctional μ/δ-Opioid Agonist–Neurokinin Antagonist Peptidomimetics” (Molecules, 2021)
Read-outs that look alike come from different tables or passages of the source. Numbered stars: 1 amine (or outer) side, 2 acyl side, 3 side chain; on linkers, the order of the positions; unused ones are H or OH. Square brackets hold non-standard residues; d marks the D form. Peptide text beside a SMILES is read from it. * marks the point of attachment. X3 = O=C(c1c(OCCN[*:1])c(-c2ccccc2)nc2ccccc12)[*:2]; X1 = O=C1[C@@H](N[*:1])Cc2ccccc2CN1CCC(=O)[*:2]; NH(1S-phenylpropyl) = CC[C@H](N*)c1ccccc1; Dmt = Cc1cc(O)cc(C)c1C[C@H](N)C(=O)O; 4Amb = NCc1ccc(C(=O)O)cc1; Ac5c = NC1(C(=O)O)CCCC1; X2 = C(CN*)CN1CCOCC1

Assays:
[1] = target: T1, NK3 (h) (Homo sapiens, UniProt P29371); experiment: NK3 radioligand binding assay (Eurofins)
T1 construct: host or cells: CHO cells
T1 sequence (P29371 1-465): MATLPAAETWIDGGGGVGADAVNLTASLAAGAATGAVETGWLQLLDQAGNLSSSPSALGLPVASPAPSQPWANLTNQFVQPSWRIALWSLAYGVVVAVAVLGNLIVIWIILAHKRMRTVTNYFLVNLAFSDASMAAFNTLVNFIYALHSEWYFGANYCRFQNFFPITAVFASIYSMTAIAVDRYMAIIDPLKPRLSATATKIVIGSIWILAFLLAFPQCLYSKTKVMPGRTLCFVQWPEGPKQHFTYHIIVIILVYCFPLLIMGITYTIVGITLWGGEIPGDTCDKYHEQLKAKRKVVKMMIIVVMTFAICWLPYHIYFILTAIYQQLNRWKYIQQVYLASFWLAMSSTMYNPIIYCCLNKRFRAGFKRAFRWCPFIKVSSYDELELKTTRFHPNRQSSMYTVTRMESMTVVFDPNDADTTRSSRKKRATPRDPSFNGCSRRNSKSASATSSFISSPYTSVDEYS

[2] = target: T2, human recombinant DOR (Homo sapiens, UniProt P41143); experiment: Opioid receptor radioligand binding assay, DOR
T2 construct: expressed in transfected cells; host or cells: CHO cells (gift from Prof. Girolamo Calo', Ferrara University)

[3] = target: T3, human recombinant MOR (Homo sapiens, UniProt P35372); experiment: Calcium mobilization assay, CHO MOR cells with Gαqi5; assay type: cell-based; settings: for reduction in potency at MOR compared to dermorphin / reduction in potency at MOR compared to opioid parent pharmacophore KGOP01 / EC50: calcium mobilization; for EC50: CHO MOR Gαqi5, maximum tested concentration 10 µM, read-out: MOR EC50 ± SEM; for MOR α ± SEM: intrinsic activity: Emax of ligand / Emax of dermorphin
T3 construct: expressed in transfected cells; host or cells: CHO cells (gift from Prof. Girolamo Calo', Ferrara University)

[4] = target: T4, human recombinant KOR (Homo sapiens, UniProt P41145); experiment: Opioid receptor radioligand binding assay, KOR
T4 construct: expressed in transfected cells; host or cells: CHO cells (gift from Prof. Girolamo Calo', Ferrara University)

[5] = target: T2, human recombinant DOR; experiment: Calcium mobilization assay, CHO DOR cells with GαqG66Di5; assay type: cell-based; settings: for decreased potency at DOR compared to reference DPDPE / EC50 / DOR EC50 ± SEM (nM): calcium mobilization; for EC50 / DOR EC50 ± SEM (nM): CHO DOR GαqG66Di5, maximum tested concentration 10 µM; for EC50: read-out: DOR EC50 ± SEM; for DOR α ± SEM: intrinsic activity: Emax of ligand / Emax of DPDPE
[6] = target: T5, NK2 (h) (Homo sapiens, UniProt P21452); experiment: NK2 radioligand binding assay (Eurofins)
T5 construct: host or cells: CHO cells
T5 sequence (P21452 1-398): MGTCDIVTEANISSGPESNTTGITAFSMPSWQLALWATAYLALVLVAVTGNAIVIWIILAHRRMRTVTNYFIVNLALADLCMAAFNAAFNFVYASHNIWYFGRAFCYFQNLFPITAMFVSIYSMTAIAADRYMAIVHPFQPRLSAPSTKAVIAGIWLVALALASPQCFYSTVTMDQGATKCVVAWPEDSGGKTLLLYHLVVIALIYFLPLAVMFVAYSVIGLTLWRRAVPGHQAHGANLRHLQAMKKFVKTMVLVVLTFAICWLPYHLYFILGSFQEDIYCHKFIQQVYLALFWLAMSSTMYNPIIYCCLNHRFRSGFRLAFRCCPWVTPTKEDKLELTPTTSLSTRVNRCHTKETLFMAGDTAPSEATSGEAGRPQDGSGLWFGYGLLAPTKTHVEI

[7] = target: T4, human recombinant KOR; experiment: Calcium mobilization assay, CHO KOR cells with Gαqi5; assay type: cell-based; settings: for KOR α ± SEM: intrinsic activity: Emax of ligand / Emax of dynorphin A
[8] = target: T3, human recombinant MOR; experiment: Opioid receptor radioligand binding assay, MOR
[9] = [125I]NKA 0.1 nM, human recombinant (CHO cells), 60 min RT, n.c. = less than 25% inhibitory binding at highest validated test concentrations, read-out: IC50 [nM] ± SEM, NK2 receptor
[10] = [125I]NKA 0.1 nM, human recombinant (CHO cells), Cheng Prusoff, n.c. = not calculated, read-out: Ki [nM] ± SEM, NK2 receptor
[11] = calcium mobilization, CHO KOR Gαqi5, maximum tested concentration 10 µM, crc = concentration-response curve
[12] = [3H][Ile5,6]deltorphin-2 displacement, CHO cell membranes, human recombinant receptor
[13] = [3H]DAMGO displacement, CHO cell membranes, human recombinant receptor

T3 sequence (P35372 whole entry): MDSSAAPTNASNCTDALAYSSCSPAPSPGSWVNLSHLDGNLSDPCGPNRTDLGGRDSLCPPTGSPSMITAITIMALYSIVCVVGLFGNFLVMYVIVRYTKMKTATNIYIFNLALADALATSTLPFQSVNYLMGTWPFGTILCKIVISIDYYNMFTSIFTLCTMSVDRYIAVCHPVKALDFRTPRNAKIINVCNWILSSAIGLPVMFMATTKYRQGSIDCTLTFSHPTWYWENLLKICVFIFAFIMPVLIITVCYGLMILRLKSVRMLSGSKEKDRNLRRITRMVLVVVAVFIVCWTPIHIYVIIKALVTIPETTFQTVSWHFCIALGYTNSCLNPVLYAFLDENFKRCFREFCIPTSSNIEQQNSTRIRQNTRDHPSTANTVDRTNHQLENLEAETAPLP
T4 sequence (P41145 whole entry): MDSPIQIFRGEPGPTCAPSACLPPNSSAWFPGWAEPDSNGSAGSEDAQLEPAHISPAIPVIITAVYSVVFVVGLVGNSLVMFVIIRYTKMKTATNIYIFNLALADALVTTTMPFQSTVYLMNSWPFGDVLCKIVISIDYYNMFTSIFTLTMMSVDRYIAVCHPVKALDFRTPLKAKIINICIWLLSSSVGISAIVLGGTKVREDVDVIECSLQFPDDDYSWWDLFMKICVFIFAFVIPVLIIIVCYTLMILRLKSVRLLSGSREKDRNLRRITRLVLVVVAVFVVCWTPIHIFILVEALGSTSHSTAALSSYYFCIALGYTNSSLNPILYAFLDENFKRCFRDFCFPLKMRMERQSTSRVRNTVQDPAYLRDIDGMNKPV
T2 sequence (P41143 whole entry): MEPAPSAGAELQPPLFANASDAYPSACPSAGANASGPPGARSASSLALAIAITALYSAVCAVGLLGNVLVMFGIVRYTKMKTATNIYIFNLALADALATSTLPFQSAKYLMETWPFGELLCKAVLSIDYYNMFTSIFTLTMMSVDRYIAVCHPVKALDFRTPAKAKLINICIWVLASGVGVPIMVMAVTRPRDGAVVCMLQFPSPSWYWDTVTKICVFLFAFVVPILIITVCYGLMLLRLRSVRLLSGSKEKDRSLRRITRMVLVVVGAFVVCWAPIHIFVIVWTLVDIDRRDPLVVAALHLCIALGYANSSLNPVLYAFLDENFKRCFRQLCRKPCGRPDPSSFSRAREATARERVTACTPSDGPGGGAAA

SMILES | Ki [2] [nM] | EC50 [3] [nM] | MOR α ± SEM [3] | Ki [4] [nM] | decreased potency at DOR compared to reference DPDPE [5] | EC50 [5] [nM] | DOR α ± SEM [5] | KOR α ± SEM [7] | Ki [8] [nM] | KOR EC50 ± SEM (nM) [7, 11] | Ki [nM] ± SEM DOR [2, 12] | DOR EC50 ± SEM (nM) [5] | other results
CC[C@H](NC(=O)c1c(OCCNC(C)=O)c(-c2ccccc2)nc2ccccc12)c1ccccc1 [SBL-OPNK-3] | – | – | – | – | – | – | – | – | – | – | – | – | IC50 ([1]; [3H]SR 142801 0.4 nM, human recombinant (CHO cells), 120 min RT, read-out: IC50 [nM] ± SEM, NK3 receptor): 20.3 ± 7.2 nM; Ki ([1]; [3H]SR 142801 0.4 nM, human recombinant (CHO cells), Cheng Prusoff, read-out: Ki [nM] ± SEM, NK3 receptor): 11 ± 7.8 nM
Cc1cc(O)cc(C)c1C[C@H](N)C(=O)N[C@H](CCCNC(=N)N)C(=O)N[C@H]1Cc2ccccc2CN(CCC(=O)N[C@@H](CC(=O)O)C(=O)N[C@@H](Cc2ccc(O)cc2)C(=O)N[C@H](Cc2c[nH]c3ccccc23)C(=O)N[C@H](C(=O)N[C@H](Cc2c[nH]c3ccccc23)C(=O)N[C@H](Cc2c[nH]c3ccccc23)C(=O)N[C@@H](CCCCN)C(N)=O)C(C)C)C1=O [SBL-OPNK-5] (H-[Dmt][dR][X1]DY[dW]V[dW][dW]K-NH2) | 10 ± 3.2 | 10.2 ± 0.67 | 0.91 ± 0.04 | 90.7 ± 0.94 | 2–3 fold | 118 ± 26 | 1.01 ± 0.03 | 0.44 ± 0.06 | 2.11 ± 0.04 | – | – | – | reduction in potency at MOR compared to dermorphin [3]: 2 fold; reduction in potency at MOR compared to opioid parent pharmacophore KGOP01 [3]: 18 fold; IC50 [6]: 3 ± 1 nM; Ki [6]: 1.6 ± 1.1 nM; EC50 ([7]; calcium mobilization, CHO KOR Gαqi5, maximum tested concentration 10 µM, crc = concentration-response curve, read-out: KOR EC50 ± SEM): 415 ± 133 nM
CC(=O)N[C@@H](CC(=O)O)C(=O)N[C@@H](Cc1ccc(O)cc1)C(=O)N[C@H](Cc1c[nH]c2ccccc12)C(=O)N[C@H](C(=O)N[C@H](Cc1c[nH]c2ccccc12)C(=O)N[C@H](Cc1c[nH]c2ccccc12)C(=O)N[C@@H](CCCCN)C(N)=O)C(C)C [SBL-OPNK-1] (Ac-DY[dW]V[dW][dW]K-NH2) | – | – | – | – | – | – | – | – | – | – | – | – | IC50 [6, 9]: 33.6 ± 11.9 nM; Ki [6, 10]: 18.3 ± 13 nM; lower NK2 binding affinity compared to the reference compound ([6]; reference [Nle10]-NKA(4-10)): about 17 fold
CC[C@H](NC(=O)c1c(OCCNC(=O)CCN2Cc3ccccc3C[C@H](NC(=O)[C@@H](CCCNC(=N)N)NC(=O)[C@@H](N)Cc3c(C)cc(O)cc3C)C2=O)c(-c2ccccc2)nc2ccccc12)c1ccccc1 [SBL-OPNK-9] | 6.57 ± 4.02 | 31.3 ± 7.39 | 0.83 ± 0.05 | 97.1 ± 4.72 | 2–3 fold | 84.1 ± 18 | 1.02 ± 0.03 | crc incomplete | 5.43 ± 0.08 | crc incomplete | – | – | IC50 [1]: 6.7 ± 2.4 nM; Ki [1]: 3.6 ± 2.5 nM; increase of NK3 affinity and potency compared to reference SB 222200 [1]: 1.5 fold
Cc1cc(O)cc(C)c1C[C@H](N)C(=O)N[C@H](CCCNC(=N)N)C(=O)N[C@@H](Cc1ccccc1)C(=O)N[C@@H](CCCCN)C(=O)N[C@@H](CC(=O)O)C(=O)N[C@@H](Cc1ccc(O)cc1)C(=O)N[C@H](Cc1c[nH]c2ccccc12)C(=O)N[C@H](C(=O)N[C@H](Cc1c[nH]c2ccccc12)C(=O)N[C@H](Cc1c[nH]c2ccccc12)C(=O)N[C@@H](CCCCN)C(N)=O)C(C)C [SBL-OPNK-4] (H-[Dmt][dR]FKDY[dW]V[dW][dW]K-NH2) | 1250 | 815 ± 145 | 0.74 ± 0.05 | 90.5 ± 5.69 | – | – | inactive | crc incomplete | 1.02 ± 0.03 | crc incomplete | did not bind efficiently | inactive | –
Cc1cc(O)cc(C)c1C[C@H](N)C(=O)N[C@H](CCCNC(=N)N)C(=O)N[C@H]1Cc2ccccc2CN(CCC(=O)NCc2ccc(C(=O)NC3(C(=O)N[C@H](Cc4ccccc4)C(=O)NCCCN4CCOCC4)CCCC3)cc2)C1=O [SBL-OPNK-7] (H-[Dmt][dR][X1][4Amb][Ac5c][dF]-X2) | – | 13.1 ± 1.84 | 0.89 ± 0.04 | – | 2–3 fold | 66.5 ± 11.7 | 1.02 ± 0.02 | inactive | – | completely inactive | – | – | Ki ([2]; [3H][Ile5,6]deltorphin-2 displacement, CHO cell membranes, human recombinant receptor, read-out: Ki [nM] ± SEM DOR): 3.26 ± 0.09 nM; reduction in potency at MOR compared to dermorphin [3]: 3 fold; reduction in potency at MOR compared to opioid parent pharmacophore KGOP01 [3]: 24 fold; Ki ([4]; [3H]nor-BNI displacement, CHO cell membranes, human recombinant receptor, read-out: Ki [nM] ± SEM KOR): 53 ± 3.2 nM; IC50 [6, 9]: 0.63 ± 0.22 nM; Ki [6, 10]: 0.34 ± 0.24 nM; Ki ([8]; [3H]DAMGO displacement, CHO cell membranes, human recombinant receptor, read-out: Ki [nM] ± SEM MOR): 2.83 ± 0.02 nM
CC[C@H](NC(=O)c1c(OCCNC(=O)[C@H](CCCCN)NC(=O)[C@H](Cc2ccccc2)NC(=O)[C@@H](CCCNC(=N)N)NC(=O)[C@@H](N)Cc2c(C)cc(O)cc2C)c(-c2ccccc2)nc2ccccc12)c1ccccc1 [SBL-OPNK-8] (H-[Dmt][dR]FK[X3]-{NH(1S-phenylpropyl)}) | 4570 | 916 ± 106 | 0.65 ± 0.02 | 104 ± 6.12 | – | – | inactive | crc incomplete | 120 ± 5.25 | crc incomplete | did not bind efficiently | inactive | Ki [nM] ± SEM MOR [8, 13]: Weak binding
CC1(C)SSC(C)(C)[C@@H](NC(=O)[C@@H](N)Cc2ccc(O)cc2)C(=O)NCC(=O)N[C@@H](Cc2ccccc2)C(=O)N[C@H]1C(=O)O [DPDPE, reference compound] | – | – | – | – | – | – | – | inactive | – | inactive | – | – | –
Cc1cc(O)cc(C)c1C[C@H](N)C(=O)N[C@H](CCCNC(=N)N)C(=O)N[C@H]1Cc2ccccc2CN(CCC(N)=O)C1=O [KGOP01, H-Dmt-D-Arg-Aba-βAla-NH2, reference compound] | 4.88 ± 0.11 | 0.54 ± 0.06 | – | 72.7 ± 4.32 | – | 75.6 ± 13.1 | – | – | – | crc incomplete | – | – | –
Cc1cc(O)cc(C)c1C[C@H](N)C(=O)N[C@H](CCCNC(=N)N)C(=O)N[C@@H](Cc1ccccc1)C(=O)N[C@@H](CCCCN)C(=O)NCc1ccc(C(=O)NC2(C(=O)N[C@H](Cc3ccccc3)C(=O)NCCCN3CCOCC3)CCCC2)cc1 [SBL-OPNK-6] (H-[Dmt][dR]FK[4Amb][Ac5c][dF]-X2) | 22400 | 988 ± 82 | 0.67 ± 0.05 | 100 ± 1.16 | – | – | inactive | crc incomplete | 74.93 ± 0.15 | crc incomplete | did not bind efficiently | inactive | Ki [nM] ± SEM MOR [8, 13]: Weak binding
